The source of these data is PubChem BioAssay (NCI).

Usually TGI stands for the concentration giving total growth inhibition. Lower therefore signals more potent growth arrest.

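48-hour exposure; five concentrations; linearly interpolated endpoints. The concentration for full growth arrest is given as TGI.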

Among the test systems are HT29 colon; SNB-75 CNS; SNB-19 CNS; A549 NSCLC; MCF7 breast; HL-60(TB) leukemia; COLO 205 colon; MDA-N; OVCAR-8 ovarian; HCC-2998 colon; MDA-MB-435; SR leukemia; EKVX NSCLC; RPMI-8226 leukemia; SK-MEL-5 melanoma; HCT-15 colon; MOLT-4 leukemia; A498 renal; NCI-H23 lung; CCRF-CEM leukemia.
What all share (assay): DTP human tumour cell line panel, 48 h

On to `CC1CC(=O)N(N(C)C)C2(C#N)C(=O)N=C(N)C12C#N` (stereo not given), for which the total growth inhibition concentration (TGI) with HT29 colon is over 100 µM; in the assay with SNB-75 CNS, over 100 µM; with SNB-19 CNS, over 100 µM; in the assay with A549 NSCLC, over 100 µM; with MCF7 breast, over 100 µM; in the assay on HL-60(TB) leukemia, 51.7 µM. In addition, the total growth inhibition concentration (TGI) in the assay with COLO 205 colon, in the assay on MDA-N, with OVCAR-8 ovarian, with HCC-2998 colon, in the assay with MDA-MB-435 and in the assay with SR leukemia was over 100 µM throughout. The TGI was over 100 µM with EKVX NSCLC; 99.1 µM in the assay on RPMI-8226 leukemia; over 100 µM in the assay with SK-MEL-5 melanoma; over 100 µM in the assay on HCT-15 colon; over 100 µM in the assay on MOLT-4 leukemia; over 100 µM in the assay with A498 renal. The total growth inhibition concentration (TGI) was over 100 µM in the assay with NCI-H23 lung and 67.5 µM in the assay with CCRF-CEM leukemia.
Regarding `CCOP1(=O)CC(C)=C(Cl)C(OC)C1` (stereo not given), the TGI in the assay with HT29 colon, in the assay with SNB-75 CNS, in the assay on SNB-19 CNS, in the assay with A549 NSCLC, in the assay on MCF7 breast and in the assay with HL-60(TB) leukemia was over 100 µM throughout. Moreover, the TGI in the assay with COLO 205 colon, in the assay with MDA-N, in the assay with OVCAR-8 ovarian, with HCC-2998 colon, in the assay on MDA-MB-435 and in the assay on SR leukemia was over 100 µM throughout. The concentration for total growth inhibition (TGI) with EKVX NSCLC, with RPMI-8226 leukemia, in the assay with SK-MEL-5 melanoma, with HCT-15 colon, with MOLT-4 leukemia and in the assay on A498 renal was over 100 µM throughout. The TGI in the assay with NCI-H23 lung and in the assay with CCRF-CEM leukemia was over 100 µM throughout.
`CCCOC(=O)c1cc(O)c(O)c(O)c1`: the concentration for total growth inhibition (TGI) with HT29 colon, in the assay on SNB-75 CNS, in the assay on SNB-19 CNS, in the assay with A549 NSCLC, with MCF7 breast and in the assay with HL-60(TB) leukemia was over 100 µM each time. The total growth inhibition concentration (TGI) with COLO 205 colon was over 100 µM; in the assay on MDA-N, 76.9 µM; with OVCAR-8 ovarian, over 100 µM; in the assay with HCC-2998 colon, over 100 µM; in the assay with MDA-MB-435, 81.1 µM; in the assay with SR leukemia, over 100 µM. Also, the TGI in the assay on EKVX NSCLC, with RPMI-8226 leukemia, in the assay with SK-MEL-5 melanoma, with HCT-15 colon, with MOLT-4 leukemia and in the assay with A498 renal was over 100 µM each time. Also, the total growth inhibition concentration (TGI) with NCI-H23 lung and in the assay with CCRF-CEM leukemia was over 100 µM each time.
Consider `ClC1=NSSC1(Cl)Cl`, for which the total growth inhibition concentration (TGI) was over 100 µM in the assay on HT29 colon; over 100 µM in the assay with SNB-75 CNS; over 100 µM in the assay with SNB-19 CNS; over 100 µM in the assay on A549 NSCLC; over 100 µM in the assay on MCF7 breast; 5.25 µM in the assay on HL-60(TB) leukemia. Further, the TGI was 30.8 µM in the assay with COLO 205 colon; 62.1 µM in the assay on MDA-N; 87.2 µM in the assay on OVCAR-8 ovarian; over 100 µM in the assay with HCC-2998 colon; over 100 µM in the assay on MDA-MB-435; 60.2 µM in the assay with SR leukemia. Moreover, the TGI is over 100 µM in the assay on EKVX NSCLC; 56 µM in the assay on RPMI-8226 leukemia; 28.8 µM in the assay with SK-MEL-5 melanoma; 60 µM in the assay with HCT-15 colon; 53.4 µM with MOLT-4 leukemia; over 100 µM with A498 renal. The concentration for total growth inhibition (TGI) in the assay on NCI-H23 lung and in the assay on CCRF-CEM leukemia was over 100 µM each time.
Consider `Cc1ccc(C(=O)N/N=C(\N=Nc2ccc([N+](=O)[O-])cc2)c2ccc(N(CCC#N)CCC#N)cc2C)cc1`, for which the TGI with HT29 colon was over 100 µM; in the assay with SNB-75 CNS it was over 100 µM; in the assay with SNB-19 CNS, over 100 µM; in the assay with A549 NSCLC, over 100 µM; with MCF7 breast, over 100 µM; in the assay on HL-60(TB) leukemia, 65.7 µM. For the same compound, the TGI in the assay with COLO 205 colon, with MDA-N, in the assay with OVCAR-8 ovarian, with HCC-2998 colon, in the assay with MDA-MB-435 and in the assay on SR leukemia was over 100 µM each time. Moreover, the TGI in the assay on EKVX NSCLC, with RPMI-8226 leukemia, in the assay on SK-MEL-5 melanoma, in the assay on HCT-15 colon, in the assay with MOLT-4 leukemia and in the assay with A498 renal was over 100 µM throughout. Further, the concentration for total growth inhibition (TGI) in the assay on NCI-H23 lung and in the assay on CCRF-CEM leukemia was over 100 µM in each case.
Regarding `CC(C)(C)N/N=C(/Cc1nc2c3c(ccc2[nH]c1=O)C(=O)c1ccccc1C3=O)C(=O)NC1=C(Cl)C(=O)c2ccccc2C1=O`, the TGI in the assay with HT29 colon is 30 µM; with SNB-75 CNS it was 9.03 µM; in the assay on SNB-19 CNS it was over 100 µM; in the assay with A549 NSCLC, over 100 µM; in the assay on MCF7 breast it was over 100 µM; in the assay on HL-60(TB) leukemia it was over 100 µM. Moreover, the TGI is 89.5 µM in the assay on COLO 205 colon; 28.3 µM in the assay on MDA-N; 98.6 µM in the assay with OVCAR-8 ovarian; over 100 µM with HCC-2998 colon; over 100 µM in the assay with MDA-MB-435; over 100 µM with SR leukemia. Besides, the total growth inhibition concentration (TGI) with EKVX NSCLC was over 100 µM; in the assay with RPMI-8226 leukemia, over 100 µM; in the assay on SK-MEL-5 melanoma, 27 µM; with HCT-15 colon, 20.3 µM; in the assay on MOLT-4 leukemia, over 100 µM; in the assay with A498 renal, over 100 µM. Moreover, the total growth inhibition concentration (TGI) with NCI-H23 lung and in the assay with CCRF-CEM leukemia was over 100 µM in each case.
As for `NCCCN(CCCCN(CCCN)CCCc1ccccc1)CCCc1ccccc1`, the concentration for total growth inhibition (TGI) is 4.32 µM in the assay with HT29 colon; 5.04 µM in the assay with SNB-75 CNS; 6.62 µM in the assay with SNB-19 CNS; 9.49 µM in the assay on A549 NSCLC; 3.56 µM in the assay on MCF7 breast; 7.44 µM in the assay on HL-60(TB) leukemia. The TGI in the assay on COLO 205 colon was determined as 3.18 µM; with MDA-N, 3.23 µM; in the assay with OVCAR-8 ovarian it was 27 µM; with HCC-2998 colon, 2.99 µM; with MDA-MB-435, 3.27 µM; in the assay on SR leukemia, 7.19 µM. Besides, the TGI with EKVX NSCLC is 12.6 µM; in the assay on RPMI-8226 leukemia, 6.15 µM; with SK-MEL-5 melanoma, 3.36 µM; in the assay with HCT-15 colon it was 4.24 µM; in the assay on MOLT-4 leukemia it was 5.21 µM; with A498 renal, 32.8 µM. Besides, the TGI worked out at 17.4 µM in the assay with NCI-H23 lung and 7.83 µM in the assay with CCRF-CEM leukemia.
